Read-outs that look alike come from different tables or passages of the source.
Experiments:
Format in all cases: cell-based
[1] = test system: PAXF1657 stably overexpressing GRK2 cDNA; test: 7-day CellTiter-Glo anti-proliferative assay; details: PAXF1657, sgNTC, pReceiver-GRK2, 5 or 10 point dose curve; for Emax: 168 h, read-out: Maximum % Growth inhibition relative to DMSO, geometric mean; for GI50: read-out: GI50, geometric mean
Protocol: (§1) Cell lines were seeded into tissue culture treated, white-walled, 96-well plates at a density of 500 cells/well in RPM11640 media supplemented with 10% H.I. FBS and penicillin/streptomycin. Plates were incubated overnight at 37° C., 5% CO2 to allow cells to adhere to the wells. GRK2 small molecule antagonists were added to the cells using a ten-point or five-point dilution series with a final concentration ranging from […] in 0.1% DMSO. At the time of compound addition, a set of plates that were not treated with compounds were collected and cell viability was measured using CellTiter-Glo (Promega). CellTiter-Glo reagent was added to the plates and luminescence was measured using a Biotek Synergy plate reader. The compound treated cells were incubated for 3 days at 37° C., 5% CO2. The media was then aspirated from each well and replaced with fresh media containing GRK2 small molecule antagonists. The compound treated cells were then incubated for another 4 days at 37° C., 5% CO2 and cell viability was assessed at the end of the 7-day compound treatment by CellTiterGlo.

[2] = test system: PAXF1657 control empty vector; test: 7-day CellTiter-Glo anti-proliferative assay; details: for Emax: 168 h, read-out: Maximum % Growth inhibition relative to DMSO, geometric mean; for GI50: read-out: GI50, geometric mean
Protocol: as §1

[3] = test system: PAXF1657 stable clone of GRK2 knockout; test: 7-day CellTiter-Glo anti-proliferative assay; details: PAXF1657, sgGRK2 #2 clonal KO, no cDNA, 10 point dose curve; for GI50: read-out: GI50, geometric mean
Protocol: as §1

PAXF1657 cells = test: Growth (RFP/GFP ratio) of sgGrk2 PAXF1657 lines re-expressing Grk2 wild-type or kinase-dead cDNA; details: for sgRNA-induced growth inhibition on re-expression of Grk2 wild-type cDNA: cleavage-resistant Grk2 wild-type cDNA
Protocol: (§2) Next, experiments were performed to evaluate whether GRK2 knockout induced by doxycycline treatment results in a proliferation defect in pancreatic cancer cells. Pancreatic cancer cell lines expressing GRK2 sgRNAs as well as RFP were plated in a ratio of 1:1 with GFP expressing pancreatic cancer cells. Co-plated cells were cultured in the presence or absence of 100 ng/ml doxycycline over the course of 21 days, and the percentage of GFP and RFP-expressing cells was measured over time.
(§3) To test whether the Grk2 sgRNAs act through targeting Grk2, and to test whether the anti-proliferative effect results from loss of the Grk2 kinase activity, Grk2 sgRNA expressing PAXF1657 cell lines overexpressing Cas9/sgRNA-cleavage-resistant Grk2 wild-type or kinase-dead cDNA constructs were generated. Re-expression of Cas9/sgRNA-cleavage-resistant Grk2 wild-type or kinase-dead cDNA constructs led to increased Grk2 protein levels, as measured by Western Blot analysis and shown in Table 18.

[4] = test system: sgGrk2-expressing PAXF1657 cells; test: Colony formation assay in sgGrk2-expressing cells (target specificity); details: PAXF1657, DMSO treatment; for Rel +dox: sgRNA induced (+dox)
Protocol: To assess the target specificity of the GRK2 small molecule antagonist of Formula III-26, sgGRK2-expressing cells were treated with the compound of Formula III-26. If GRK2 knockout is complete and the compound of Formula III-26 inhibits only GRK2, the addition of the compound of Formula III-26 should not induce any additional growth defect compared to sgRNA KO alone. […] This is potentially due to the lower GRK2 knockout efficiency that can be achieved in PAXF1657 compared to Miapaca2, as shown in Table 16.

PAXF1657 = test: RFP/GFP competition assay, doxycycline-induced GRK2 knockout
Protocol: as §2

Grk2 protein [5] = test: Western Blot of Grk2 levels after doxycycline-induced sgRNA expression; details: PAXF1657, day 7, +dox
Protocol: To validate the findings from the CRISPR screen, Cas9-expressing pancreatic cell lines were generated that express doxycycline inducible sgRNAs targeting GRK2. Treatment of these cells with 100 ng/ml doxycycline for 3, 7 or 10 days induced a time-dependent depletion of Grk2 protein, confirming the on-target efficacy of the sgRNAs.

Grk2 protein [6] = test: Western Blot of Grk2 levels in PAXF1657 lines re-expressing cleavage-resistant Grk2 wild-type or kinase-dead cDNA; details: PAXF1657 expressing the sgRNA, cDNA Empty vector; for GRK2/GAPDH / GRK2 Adj. Vol. (Int): +dox
Text: as §3

[7] = PAXF1657, sgNTC, pReceiver-empty vector, 5 or 10 point dose curve
[8] = PAXF1657, day 3, 100 ng/ml doxycycline
[9] = PAXF1657, day 7, 100 ng/ml doxycycline
[10] = PAXF1657, day 10, 100 ng/ml doxycycline
[11] = PAXF1657, day 14, 100 ng/ml doxycycline
[12] = PAXF1657, day 17, 100 ng/ml doxycycline
[13] = PAXF1657, day 21, 100 ng/ml doxycycline

Row | Compound | Emax [1] [%] | GI50 [1] [µM] | Emax [2, 7] [%] | GI50 [2, 7] [µM] | also measured
1 | O=C(NCc1ccccc1C(F)(F)F)c1cccc(NCc2nnc(-c3ccncc3)n2CCO)c1 [Compound of Formula III-54] | 87.3 | 2.71 | 89 | 2.52 | –
2 | O=C(NCc1c(F)cccc1F)c1cccc(NCc2nnc3n2CCOc2cnccc2-3)c1 [Compound of Formula III-56] | 28.3 | > 10 | 46.5 | > 10 | –
3 | Cn1c(CNc2cccc(C(=O)NCc3c(F)cccc3F)c2)nnc1-c1ccncn1 [Compound of Formula III-31] | 29.8 | > 10 | 31.6 | > 10 | –
4 | O=C(NCc1ccccc1C(F)(F)F)c1cccc(NCc2nnc3n2CCOc2cnccc2-3)c1 [Compound of Formula III-55] | 85.9 | 0.17 | 82.3 | 0.11 | –
5 | O=C(NCc1ccccc1)c1cccc(NCc2nnc(-c3ccncc3)[nH]2)c1 [Compound of Formula III-30] | 65.5 | 3.4 | 73.1 | 4.91 | Maximum % Growth inhibition relative to DMSO, geometric mean [3]: 63.5%; GI50 [3]: > 30 µM
6 | sgGrk2-3: "sgGrk2-3 (SEQ ID NO: 4)"; "doxycycline inducible sgRNAs targeting GRK2" (guide GCACCCCAGAGAGAACCAGT; expressed or natural sequence) | – | – | – | – | sgRNA-induced growth inhibition on re-expression of Grk2 wild-type cDNA (PAXF1657 cells): less efficient; Difference between rel +dox and −dox signal [4]: 0.36; Rel +dox [4]: 0.64; RFP/GFP ratio +dox normalized to RFP/GFP ratio −dox (PAXF1657; [8]): 0.92; RFP/GFP ratio +dox normalized to RFP/GFP ratio −dox (PAXF1657; [9]): 0.83; RFP/GFP ratio +dox normalized to RFP/GFP ratio −dox (PAXF1657; [10]): 0.64; RFP/GFP ratio +dox normalized to RFP/GFP ratio −dox (PAXF1657; [11]): 0.44; RFP/GFP ratio +dox normalized to RFP/GFP ratio −dox (PAXF1657; [12]): 0.27; RFP/GFP ratio +dox normalized to RFP/GFP ratio −dox (PAXF1657; [13]): 0.24; GRK2/GAPDH normalized to −dox (Grk2 protein [5]): 0.28; GRK2/GAPDH ratio (Grk2 protein [5]): 0.16; GRK2 Avg. Intensity (Grk2 protein [5]): 2,026,964.66; GRK2/GAPDH normalized to −dox (Grk2 protein [6]): −2.47; GRK2/GAPDH (Grk2 protein [6]): −0.04; GRK2 Adj. Vol. (Int) (Grk2 protein [6]): −514,147.69
7 | O=C(NCc1cc[nH]n1)c1cc([C@@H]2CCNC[C@H]2COc2ccc3c(c2)OCO3)ccc1F [Compound of Formula II-26] | 25.5 | > 10 | 43.3 | – | GI50 [2]: 1.49 µM
8 | CCCn1c(CNc2cccc(C(=O)NCc3ccccc3C(F)(F)F)c2)nnc1-c1ccncn1 [Compound of Formula III-35] | 81.4 | 0.614 | 83.6 | 0.68 | –
9 | Fc1ccc([C@@H]2CCNC[C@H]2COc2ccc3[nH]ncc3c2)cc1CNCc1ccn[nH]1 [Compound of Formula II-33] | 0 | > 10 | 42.7 | 6.27 | –
10 | sgGrk2-2: "sgGrk2-2 (SEQ ID NO: 3)"; "doxycycline inducible sgRNAs targeting GRK2" (guide GGTCCCGGTAGACCACGAAG; expressed or natural sequence) | – | – | – | – | sgRNA-induced growth inhibition on re-expression of Grk2 kinase-dead cDNA (PAXF1657 cells; cleavage-resistant Grk2 kinase-dead cDNA): did not; sgRNA-induced growth inhibition on re-expression of Grk2 wild-type cDNA (PAXF1657 cells): reduced the sgRNA-induced growth inhibition; Difference between rel +dox and −dox signal [4]: 0.21; Rel +dox [4]: 0.79; RFP/GFP ratio +dox normalized to RFP/GFP ratio −dox (PAXF1657; [8]): 1.00; RFP/GFP ratio +dox normalized to RFP/GFP ratio −dox (PAXF1657; [9]): 0.89; RFP/GFP ratio +dox normalized to RFP/GFP ratio −dox (PAXF1657; [10]): 0.76; RFP/GFP ratio +dox normalized to RFP/GFP ratio −dox (PAXF1657; [11]): 0.69; RFP/GFP ratio +dox normalized to RFP/GFP ratio −dox (PAXF1657; [12]): 0.57; RFP/GFP ratio +dox normalized to RFP/GFP ratio −dox (PAXF1657; [13]): 0.44; GRK2/GAPDH normalized to −dox (Grk2 protein [5]): 0.20; GRK2/GAPDH ratio (Grk2 protein [5]): 0.06; GRK2 Avg. Intensity (Grk2 protein [5]): 2,133,921.03; GRK2/GAPDH normalized to −dox (Grk2 protein [6]): −0.24; GRK2/GAPDH (Grk2 protein [6]): −0.01; GRK2 Adj. Vol. (Int) (Grk2 protein [6]): −189,385.63
11 | COc1ccccc1CNC(=O)c1cccc(NCc2nnc(-c3ccncc3)[nH]2)c1 [Compound of Formula III-28] | 64.7 | 14.7 | 76.8 | 0.653 | Maximum % Growth inhibition relative to DMSO, geometric mean [3]: 78.8%; GI50 [3]: 17.9 µM
12 | O=C(NCc1[nH]nc2ccccc12)c1cc([C@@H]2CCNC[C@H]2COc2ccc3c(c2)OCO3)ccc1F [Compound of Formula II-35] | – | – | – | 3.37 | –
